Test results: paper PMC9501377, “New Diarylamine KV10.1 Inhibitors and Their Anticancer Potential” (Pharmaceutics, 2022)
Where “and” joins values, the source holds several entries; their conditions need not be identical. Identical values can stand only once.

Legend:
Assay type in all cases: cell-based
[1] = target: T1, hERG (Homo sapiens, UniProt Q12809); test: Whole-cell patch-clamp, hERG inhibition; set-up: expressed in transfected cells; conditions: dose–response fit
[2] = target: T1, hERG; test: Two-electrode voltage-clamp on Xenopus laevis oocytes expressing hERG; set-up: expressed in transfected cells; host or cells: Xenopus laevis oocytes (cRNA injection); conditions: voltage-clamped; for inhibition at 10 µM: human, Xenopus laevis oocytes expressing hERG, pH 7.5, 10 μM
Source text: (§1) Stage V–VI oocytes were isolated by partial ovariectomy from Xenopus laevis frogs (African clawed frog). Mature female frogs were purchased from CRB Xénopes (Rennes, France) and were housed in the Aquatic Facility (KU Leuven) in compliance with the regulations of the European Union (EU) concerning the welfare of laboratory animals as declared in Directive 2010/63/EU. The use of Xenopus laevis was approved by the Animal Ethics Committee of the KU Leuven (Project nr. P186/2019). After anesthetising the frogs by a 15 min submersion in 0.1% tricaine methanesulphonate (pH 7.0), the oocytes were collected. The isolated oocytes were then washed with a 1.5 mg/mL collagenase solution for 2 h to remove the follicle layer.
(§2) Ion channels (KV10.1 and hERG) were expressed in Xenopus laevis oocytes, by linearisation of the plasmids and subsequent in vitro transcription using a commercial T7 or SP6 mMESSAGE mMACHINE transcription kit (Ambion, Carlsbad, CA, USA). Defolliculated Xenopus oocytes were then injected with 20–50 nL of the cRNA at a concentration of 1 ng/nL using a micro-injector (Drummond Scientific1, Broomall, PA, USA). The oocytes were incubated in a solution containing (in mM): NaCl, 96; KCl, 2; CaCl2, 1.8; MgCl2, 2 and HEPES, 5 (pH 7.4), supplemented with 50 mg/L gentamycin sulphate and […]. After ex vivo translation, the ion channels are correctly inserted in the cell membrane of the oocytes.
(§3) Two-electrode voltage-clamp recordings were performed at room temperature (18–22 °C) using a Geneclamp 500 amplifier (Molecular Devices, San Jose, CA, USA) controlled by a pClamp data acquisition system (Axon Instruments1, Union City, CA, USA) and using an integrated digital TEVC amplifier controlled by HiClamp, an automated Voltage-Clamp Screening System (Multi Channel Systems MCS GmbH, Reutlingen, Germany). Whole-cell currents from oocytes were recorded 1–7 days after injection. The bath solution composition was ND96 (in mM): NaCl, 96; KCl, 2; CaCl2, 1.8; MgCl2, 2 and HEPES, 5 (pH 7.5). Voltage and current electrodes were filled with a 3 M solution of KCl in H2O. Resistances of both electrodes were kept between 0.5 and 1.5 MΩ. The elicited Kv10.1 and hERG currents were filtered at 0.5 kHz and sampled at 2 kHz using a four-pole low-pass Bessel filter. Leak subtraction was performed using a p/4 protocol. Starting from a holding potential of −90 mV, currents for Kv10.1 were evoked by 1 s depolarizing pulses to 0 mV and currents for hERG were evoked by 2.5 s depolarizing prepulses to +40 mV, followed by hyperpolarizing pulses to −120 mV for 2.5 s. The concentration dependency of all compounds was assessed by measuring the current inhibition in the presence of increasing compound concentrations. To this end, a stock solution of the compounds was prepared in 100% DMSO for the sake of solubility. From this stock solution, adequate dilutions with a maximum of 0.5% DMSO were made for testing. The data of the concentration–response curves were fitted with the Hill equation: y = 100/{1 + (IC50/[compound])^h}, where y is the amplitude of the compound- induced effect, IC50 is the compound concentration at half-maximal efficacy, (compound) is the compound concentration, and h is the Hill coefficient.
(§4) All electrophysiological data are presented as means ± SEM of n ≥ 3 independent experiments unless otherwise indicated. Oocyte data were analysed using pClamp Clampfit 10.4 (Molecular Devices, Downingtown, PA, USA) and OriginPro 9 (Originlab, Northampton, MA, USA) or GraphPad Prism 8 software (GraphPad Software, Inc., San Diego, CA, USA). Patch-clamp data analysis was performed using FitMaster (HEKA Electronics), IgorPro (Wavemetrics, Inc., Lake Oswego, OR, USA) and GraphPad Prism 9 (GraphPad Software, Inc., San Diego, CA, USA). The Dunnett test and one-way ANOVA were performed to calculate the significance of the induced inhibition compared to the control (p < 0.05).

[3] = target: T2, KV10.1 (Homo sapiens, UniProt O95259); test: Two-electrode voltage-clamp on Xenopus laevis oocytes expressing KV10.1; conditions: voltage-clamped
T2 construct: expressed in transfected cells; host or cells: Xenopus laevis oocytes (cRNA injection)
T2 sequence (O95259 1-989): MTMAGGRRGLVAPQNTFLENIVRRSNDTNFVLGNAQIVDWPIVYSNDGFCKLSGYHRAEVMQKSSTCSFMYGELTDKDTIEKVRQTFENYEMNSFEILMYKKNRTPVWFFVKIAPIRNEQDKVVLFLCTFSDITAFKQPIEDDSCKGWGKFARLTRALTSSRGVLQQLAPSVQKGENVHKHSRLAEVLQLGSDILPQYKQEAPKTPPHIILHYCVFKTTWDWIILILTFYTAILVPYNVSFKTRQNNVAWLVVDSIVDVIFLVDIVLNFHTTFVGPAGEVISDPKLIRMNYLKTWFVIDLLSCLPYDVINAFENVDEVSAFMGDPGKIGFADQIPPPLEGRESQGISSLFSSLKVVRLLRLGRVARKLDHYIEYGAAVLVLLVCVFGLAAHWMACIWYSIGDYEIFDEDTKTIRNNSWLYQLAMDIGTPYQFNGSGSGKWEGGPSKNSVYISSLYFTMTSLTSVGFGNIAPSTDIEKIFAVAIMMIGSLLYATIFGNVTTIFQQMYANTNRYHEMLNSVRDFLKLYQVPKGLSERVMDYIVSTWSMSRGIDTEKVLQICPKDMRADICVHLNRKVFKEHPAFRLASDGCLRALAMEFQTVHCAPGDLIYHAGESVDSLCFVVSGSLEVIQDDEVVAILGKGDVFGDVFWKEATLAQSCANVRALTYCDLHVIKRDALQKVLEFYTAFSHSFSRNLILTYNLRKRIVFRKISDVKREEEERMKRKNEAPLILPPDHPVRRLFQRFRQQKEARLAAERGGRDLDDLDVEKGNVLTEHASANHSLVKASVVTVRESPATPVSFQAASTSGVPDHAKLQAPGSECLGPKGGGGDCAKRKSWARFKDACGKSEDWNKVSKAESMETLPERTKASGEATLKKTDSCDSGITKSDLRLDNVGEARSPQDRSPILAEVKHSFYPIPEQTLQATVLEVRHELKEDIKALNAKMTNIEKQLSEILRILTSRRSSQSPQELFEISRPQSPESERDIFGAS
Source text: as §1, §2, §3, §4

T1 sequence (Q12809 whole entry): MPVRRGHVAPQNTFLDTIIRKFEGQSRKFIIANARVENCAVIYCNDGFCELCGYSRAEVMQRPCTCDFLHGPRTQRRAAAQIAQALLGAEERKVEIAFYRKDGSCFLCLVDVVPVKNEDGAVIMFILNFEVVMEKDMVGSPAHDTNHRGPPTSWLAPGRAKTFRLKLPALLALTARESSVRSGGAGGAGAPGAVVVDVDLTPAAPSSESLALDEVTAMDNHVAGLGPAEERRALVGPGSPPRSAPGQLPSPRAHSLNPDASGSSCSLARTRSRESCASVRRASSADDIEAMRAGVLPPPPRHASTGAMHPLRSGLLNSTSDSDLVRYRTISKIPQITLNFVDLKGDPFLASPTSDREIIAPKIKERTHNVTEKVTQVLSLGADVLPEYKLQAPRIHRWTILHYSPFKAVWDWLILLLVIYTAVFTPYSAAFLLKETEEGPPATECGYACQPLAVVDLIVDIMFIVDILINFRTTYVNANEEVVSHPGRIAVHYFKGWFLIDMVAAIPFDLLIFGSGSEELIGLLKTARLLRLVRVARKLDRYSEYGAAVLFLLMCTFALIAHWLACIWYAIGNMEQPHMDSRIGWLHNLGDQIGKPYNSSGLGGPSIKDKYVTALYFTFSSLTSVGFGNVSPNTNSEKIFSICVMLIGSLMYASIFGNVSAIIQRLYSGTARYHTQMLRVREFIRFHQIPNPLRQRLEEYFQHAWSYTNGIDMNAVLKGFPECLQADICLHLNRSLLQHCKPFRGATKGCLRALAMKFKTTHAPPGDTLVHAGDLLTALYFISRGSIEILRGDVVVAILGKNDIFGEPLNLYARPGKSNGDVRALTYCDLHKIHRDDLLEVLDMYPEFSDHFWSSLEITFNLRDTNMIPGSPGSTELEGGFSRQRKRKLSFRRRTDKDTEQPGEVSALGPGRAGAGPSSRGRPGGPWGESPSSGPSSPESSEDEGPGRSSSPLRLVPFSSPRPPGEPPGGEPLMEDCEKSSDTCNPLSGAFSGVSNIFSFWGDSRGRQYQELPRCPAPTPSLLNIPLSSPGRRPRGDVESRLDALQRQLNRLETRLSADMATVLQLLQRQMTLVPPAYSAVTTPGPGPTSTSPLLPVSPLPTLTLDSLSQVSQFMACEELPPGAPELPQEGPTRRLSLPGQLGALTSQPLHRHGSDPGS

inhibition at 10 µM ([3]; 10 μM) [%]	IC50 [3]	% of Kv10.1 inhibition at 10 μM (Xenopus laevis oocytes) ([3]; 10 μM)	Molecule	IC50 [1] [µM]	inhibition at 10 µM [2] [%]	IC50 [2]	% of hERG inhibition at 10 μM (Xenopus laevis oocytes) ([2]; 10 μM)
63.5	3.58 µM and 3.6 µM		CCN(CC)CCOc1ccc(Nc2ccc(C(F)(F)F)cc2[N+](=O)[O-])cc1 [Compound 17a, N-(4-(2-(Diethylamino)ethoxy)phenyl)-2-nitro-4-(trifluoromethyl)aniline]	0.232	64.5	2.01 µM and 2 µM	
41.7	11.6 ± 0.35 µM		CN(C)CCOc1ccc(Nc2ccc(C(F)(F)F)cc2[N+](=O)[O-])cc1 [Compound 18a, N-(4-(2-(Dimethylamino)ethoxy)phenyl)-2-nitro-4-(trifluoromethyl)aniline]	0.177	65.2	7.56 ± 0.41 µM	
26			CN(C)CCOc1c(Br)cc(Nc2ccc(C(F)(F)F)cc2[N+](=O)[O-])cc1Br [Compound 18b, 3,5-Dibromo-4-(2-(dimethylamino)ethoxy)-N-(2-nitro-4-(trifluoromethyl)phenyl)aniline]	0.0049	66.8		
43.4	13.3 ± 1.89 µM		O=[N+]([O-])c1cc(C(F)(F)F)ccc1Nc1ccc(OCCN2CCCCCC2)cc1 [Compound 21, N-(4-(2-(Azepan-1-yl)ethoxy)phenyl)-2-nitro-4-(trifluoromethyl)aniline]		77.5 ± 5.71	1.34 ± 0.32 µM	
		-2.17% ± 3.06	Methyl 2-((4-(2-hydroxy-3-morpholinopropoxy)phenyl)amino)benzoate [Compound 5e]				37.32% ± 13.11
